This passage reports IC50 results from patent US8426588B2, “Phenylalanine derivatives” (Ajinomoto Co, Inc., priority 2000, dated 2013).

Broadly, the IC50 is the concentration that inhibits the measured activity by half.

The target in assay [1] is T1, integrin α4β7 (Homo sapiens, UniProt P13612+P26010).
T1 construct: lymphoma cell strain RPMI-8866 of human B cells, known to express integrin α4β7; endogenous in cells; host or cells: RPMI-8866
T1 sequence (P13612 34-1032): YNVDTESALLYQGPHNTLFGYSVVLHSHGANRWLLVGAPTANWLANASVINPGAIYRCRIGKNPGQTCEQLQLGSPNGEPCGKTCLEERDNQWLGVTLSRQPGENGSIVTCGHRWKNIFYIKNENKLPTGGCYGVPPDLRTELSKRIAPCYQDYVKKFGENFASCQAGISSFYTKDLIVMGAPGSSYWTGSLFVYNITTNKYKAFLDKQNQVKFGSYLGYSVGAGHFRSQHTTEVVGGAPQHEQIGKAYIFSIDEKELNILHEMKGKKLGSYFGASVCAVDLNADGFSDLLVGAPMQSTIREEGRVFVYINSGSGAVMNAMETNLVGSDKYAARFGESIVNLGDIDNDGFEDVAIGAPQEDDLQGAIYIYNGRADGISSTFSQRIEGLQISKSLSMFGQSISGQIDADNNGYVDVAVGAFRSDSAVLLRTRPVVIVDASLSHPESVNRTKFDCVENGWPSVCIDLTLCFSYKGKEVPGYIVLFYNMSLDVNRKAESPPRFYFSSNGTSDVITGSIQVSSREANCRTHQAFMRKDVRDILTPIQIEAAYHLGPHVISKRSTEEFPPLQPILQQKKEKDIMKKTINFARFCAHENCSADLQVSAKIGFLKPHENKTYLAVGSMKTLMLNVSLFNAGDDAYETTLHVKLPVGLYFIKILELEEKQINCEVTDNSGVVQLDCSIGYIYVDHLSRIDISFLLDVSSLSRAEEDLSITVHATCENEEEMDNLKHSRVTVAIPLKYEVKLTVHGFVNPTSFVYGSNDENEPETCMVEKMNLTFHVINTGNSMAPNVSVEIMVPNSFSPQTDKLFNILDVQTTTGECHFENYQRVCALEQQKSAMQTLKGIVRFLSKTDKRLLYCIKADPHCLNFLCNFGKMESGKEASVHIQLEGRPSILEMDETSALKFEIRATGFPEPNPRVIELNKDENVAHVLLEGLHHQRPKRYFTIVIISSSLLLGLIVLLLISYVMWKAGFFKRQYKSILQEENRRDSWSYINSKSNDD
T1 sequence (P26010 20-798): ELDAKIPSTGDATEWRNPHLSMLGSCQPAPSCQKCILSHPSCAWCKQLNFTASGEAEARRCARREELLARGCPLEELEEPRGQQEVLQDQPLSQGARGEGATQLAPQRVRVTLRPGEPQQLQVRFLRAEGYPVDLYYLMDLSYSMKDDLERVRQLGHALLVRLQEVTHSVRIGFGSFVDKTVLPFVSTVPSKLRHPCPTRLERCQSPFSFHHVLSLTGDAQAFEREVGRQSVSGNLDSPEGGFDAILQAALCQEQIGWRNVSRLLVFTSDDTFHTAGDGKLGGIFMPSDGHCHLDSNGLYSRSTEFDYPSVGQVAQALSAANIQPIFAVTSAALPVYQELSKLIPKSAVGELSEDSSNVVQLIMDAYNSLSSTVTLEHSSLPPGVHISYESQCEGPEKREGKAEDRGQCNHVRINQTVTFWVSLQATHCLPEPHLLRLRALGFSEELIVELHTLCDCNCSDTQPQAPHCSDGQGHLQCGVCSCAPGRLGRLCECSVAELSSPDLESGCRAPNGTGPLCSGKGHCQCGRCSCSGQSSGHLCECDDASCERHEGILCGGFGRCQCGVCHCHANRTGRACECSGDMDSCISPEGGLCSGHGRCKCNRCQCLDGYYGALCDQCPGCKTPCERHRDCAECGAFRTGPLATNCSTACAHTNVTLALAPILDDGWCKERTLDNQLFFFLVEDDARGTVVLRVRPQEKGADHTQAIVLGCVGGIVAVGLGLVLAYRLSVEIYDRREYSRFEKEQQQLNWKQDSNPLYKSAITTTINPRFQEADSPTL
As to the kind of experiment: VCAM antagonistic activity (VCAM-1/α4β7 binding assay), RPMI-8866 cells binding to VCAM-1. In kind it is cell-based. The settings on record: RPMI-8866 human B lymphoma cells binding to recombinant human VCAM-1; binding buffer with 4 mM MnCl2. The method, then: VCAM Antagonistic Activity (VCAM-1/α4β7 Binding Assay)
The capacity of a test substance antagonistic to the binding of lymphoma cell strain RPMI-8866 of human B cells, known to express integrin α4β7, to VCAM-1 was determined.
(§1) 100 μl/well of a solution (500 ng/ml) of recombinant human VCAM-1 (R & D systems) solution diluted with buffer A (0.1 M NaHCO3, pH 9.6) was added to a micro titer plate having 96 wells (Nunc Maxisorp). After the incubation at 4° C. overnight, unbound VCAM-1 was removed by washing once with PBS. After completion of the washing, a buffer (buffer B) obtained by diluting Block Ace (Dainippon Pharmaceutical Co., Ltd.) with PBS to ¼ concentration was added in an amount of 150 μl/well. After the incubation at room temperature for 1 hour, buffer B was removed and the plate was washed with PBS once.
RPMI-8866 cells were washed with DMEM twice and incubated in Dulbecco modified Eagle medium containing 10 μg/ml of Calcein-AM (Wako Pure Chemical Industries, Ltd.) (SIGMA, hereinafter referred to as “DMEM”) in dark place at 37° C. for 30 minutes to label with fluorescence. The cells were again suspended in a binding buffer (20 mM HEPES, DMEM containing 0.1% BSA) containing 4 mM of MnCl2.
(§2) 50 μl of a test substance of various concentrations obtained by the dilution with the binding buffer was added to the plate. Immediately thereafter, 50 μl (final volume: 100 μl/well) of the fluorescent RPMI-8866 cells (4×10^6 cells/ml) were added thereto, and they were incubated in dark place at room temperature for 30 minutes. After the shaking on a plate shaker (IKA MTS-4) at 800 rpm for 30 seconds, the solution was immediately removed to remove the unbound cells. The fluorescence quantity of the bound cells remaining in the wells was determined with a fluorescent plate reader (Wallac 1420 ARVO multi-label counter) (filter excitation wave length: 485 nm, emission wave length: 535 nm). The fluorescent strength thus obtained is proportional to the number of RPMI-8866 cells bound to VCAM-1 and remaining on the plate. The binding rate of each test material in various concentrations was determined while the fluorescent strength of the test material-free well was determined to be 100%.

Assay [2] has as its target T2, integrin α4β1 (Homo sapiens, UniProt P05556+P13612).
T2 construct: cell strain Jurkat (ATCC TIB-152) of human T cells, known to express integrin α4β1; endogenous in cells; host or cells: Jurkat (ATCC TIB-152)
As to the kind of experiment: VCAM antagonist activity (VCAM-1/α4β1 binding assay), Jurkat cells binding to VCAM-1. In kind it is cell-based. The settings on record: Jurkat human T cells binding to recombinant human VCAM-1; read-out: VCAM antagonistic activity (IC50) α4β1. The method, then: VCAM Antagonist Activity (VCAM-1/α4β1 Binding Assay)
The capacity of a test substance antagonistic to the binding of cell strain Jurkat (ATCC TIB-152) of human T cells, known to express integrin α4β1, to VCAM-1 was determined.
as §1
Jurkat cells were washed with Dulbecco modified Eagle medium (SIGMA, hereinafter referred to as “DMEM”) twice and then incubated in DMEM containing 10 μg/ml of Calcein-AM (Wako Pure Chemical Industries, Ltd.) at 37° C. in dark place for 30 minutes to label with fluorescence. The cells were again suspended in a binding buffer (20 mM HEPES, DMEM containing 0.1% BSA).
as §2, with “Jurkat” for “RPMI-8866”, “1920” for “1420”

SMILES strings stand for the structures.

T2 sequence (P05556 21-798, one chain of several): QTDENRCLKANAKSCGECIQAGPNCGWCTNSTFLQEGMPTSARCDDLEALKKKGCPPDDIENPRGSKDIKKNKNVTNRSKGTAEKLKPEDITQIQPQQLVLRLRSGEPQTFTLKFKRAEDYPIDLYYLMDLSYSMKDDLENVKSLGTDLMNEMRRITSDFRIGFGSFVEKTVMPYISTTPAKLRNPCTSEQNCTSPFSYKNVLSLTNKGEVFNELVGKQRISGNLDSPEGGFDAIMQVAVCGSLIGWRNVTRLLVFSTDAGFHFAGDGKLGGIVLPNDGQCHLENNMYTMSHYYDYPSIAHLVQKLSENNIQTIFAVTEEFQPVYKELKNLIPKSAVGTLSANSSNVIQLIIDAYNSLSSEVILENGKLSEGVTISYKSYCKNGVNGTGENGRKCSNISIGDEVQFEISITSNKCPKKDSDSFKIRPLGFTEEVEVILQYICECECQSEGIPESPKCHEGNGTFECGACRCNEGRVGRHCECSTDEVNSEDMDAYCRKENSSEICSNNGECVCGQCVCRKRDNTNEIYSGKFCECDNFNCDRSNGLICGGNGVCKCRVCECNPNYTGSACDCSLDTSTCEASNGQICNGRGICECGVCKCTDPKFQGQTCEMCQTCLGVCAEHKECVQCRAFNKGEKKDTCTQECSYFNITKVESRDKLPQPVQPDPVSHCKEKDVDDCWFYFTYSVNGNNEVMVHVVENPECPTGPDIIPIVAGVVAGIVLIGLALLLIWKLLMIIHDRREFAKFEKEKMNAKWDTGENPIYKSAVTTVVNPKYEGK

Regarding `Cn1c(=S)n(-c2ccc(C[C@H](NC(=O)c3c(Cl)cccc3Cl)C(=O)O)cc2)c(=O)c2cc([N+](=O)[O-])ccc21` [Example 66], the IC50 in assay [1] amounted to 1.3 nM; in assay [2], 170 nM.

With `Cc1nc2ccccc2c(=O)n1-c1ccc(C[C@H](NC(=O)c2c(Cl)cccc2Cl)C(=O)O)cc1` [Example 31], the IC50 in assay [1] worked out at 50 nM; in assay [2], 630 nM.

In the case of `CC(C)n1c(=O)n(-c2ccc(C[C@H](NC(=O)c3c(Cl)cccc3Cl)C(=O)O)cc2)c(=O)c2cc([N+](=O)[O-])ccc21` [Example 57], the half-maximal inhibitory concentration (IC50) is 29.9 nM in assay [1] and 639 nM in assay [2].

Regarding `Cc1cccc2c1c(=O)n(-c1ccc(C[C@H](NC(=O)c3c(Cl)cccc3Cl)C(=O)O)cc1)c(=O)n2Cc1ccccc1` [Example 97], the half-maximal inhibitory concentration (IC50) is 13 nM in assay [1] and 1500 nM in assay [2].

For `Cc1cccc2c(=O)n(-c3ccc(C[C@H](NC(=O)c4c(Cl)cccc4Cl)C(=O)O)cc3)c(=O)n(C)c12` [Example 186], the IC50 in assay [1] was determined as 4.3 nM; in assay [2], 59 nM.

In the case of `COc1cc2[nH]c(=O)n(-c3ccc(C[C@H](NC(=O)c4c(Cl)cccc4Cl)C(=O)O)cc3)c(=O)c2cc1OC` [Example 51], the values for the IC50 in assay [1] and in assay [2] were 30 nM and 1180 nM, respectively.

In the case of `COc1ccc2[nH]c(=O)n(-c3ccc(C[C@H](NC(=O)c4c(Cl)cccc4Cl)C(=O)O)cc3)c(=O)c2c1` [Example 48], the IC50 in assay [1] turned out to be 28 nM; in assay [2] it was 1800 nM.

Turning to `CCOc1nc2cc(F)ccc2c(=O)n1-c1ccc(C[C@H](NC(=O)c2c(Cl)cccc2Cl)C(=O)O)cc1` [Example 95], the half-inhibitory concentration (IC50) is 1.8 nM in assay [1] and 960 nM in assay [2].

`O=C(N[C@@H](Cc1ccc(-n2c(=O)[nH]c3c(Cl)cccc3c2=O)cc1)C(=O)O)c1c(Cl)cccc1Cl` [Example 45]: the values for the IC50 in assay [1] and in assay [2] were 10.2 nM and 340 nM, respectively.

For `O=C(N[C@@H](Cc1ccc(-n2c(=O)[nH]c3nccnc3c2=O)cc1)C(=O)O)c1c(Cl)cccc1Cl` [Example 80], the half-inhibitory concentration (IC50) in assay [1] was determined as 74 nM; in assay [2], 960 nM.

Turning to `Cn1c(=O)n(-c2ccc(C[C@H](NC(=O)c3c(Cl)cccc3Cl)C(=O)O)cc2)c(=O)c2ccc(C(F)(F)F)cc21` [Example 185], the concentration for half-maximal inhibition (IC50) was 2.7 nM in assay [1] and 12 nM in assay [2].

For the compound `CCn1c(=O)n(-c2ccc(C[C@H](NC(=O)c3c(Cl)cccc3Cl)C(=O)O)cc2)c(=O)c2ccccc21` [Example 3], the figures for the half-inhibitory concentration (IC50) in assay [1] and in assay [2] were 3.5 nM and 66 nM, respectively.

With `CN1C(=O)N(c2ccc(C[C@H](NC(=O)c3c(Cl)cccc3Cl)C(=O)O)cc2)Cc2ccccc21` [Example 147], the IC50 in assay [1] was 6.5 nM; in assay [2], 107 nM.

Take `O=C(N[C@@H](Cc1ccc(-n2c(=O)c3cc([N+](=O)[O-])ccc3n(C3CC3)c2=S)cc1)C(=O)O)c1c(Cl)cccc1Cl` [Example 68]: the IC50 is 1.5 nM in assay [1] and 350 nM in assay [2].

Turning to `Cc1cccc(C)c1C(=O)N[C@@H](Cc1ccc(-n2c(CCl)nc3ccccc3c2=O)cc1)C(=O)O` [Example 44], the figures for the half-inhibitory concentration (IC50) in assay [1] and in assay [2] were 79 nM and 4230 nM, respectively.

`CC(=O)Nc1ccc2c(c1)c(=O)n(-c1ccc(C[C@H](NC(=O)c3c(Cl)cccc3Cl)C(=O)O)cc1)c(=O)n2C` [Example 104]: the concentration for half-maximal inhibition (IC50) in assay [1] worked out at 1.4 nM; in assay [2], 16 nM.

Consider `Cn1c(=O)n(-c2ccc(C[C@H](NC(=O)c3c(Cl)cccc3Cl)C(=O)O)cc2)c(=O)c2c(Cl)ccc(Cl)c21` [Example 70], for which the IC50 in assay [1] is 3.5 nM; in assay [2] it was 34 nM.

Take `O=C(O)Cn1c(=O)n(-c2ccc(C[C@H](NC(=O)c3c(Cl)cccc3Cl)C(=O)O)cc2)c(=O)c2ccccc21` [Example 7]: the IC50 worked out at 22 nM in assay [1] and 110 nM in assay [2].

As for `O=C(N[C@@H](Cc1ccc(-n2c(=O)[nH]c3cc(C(F)(F)F)ccc3c2=O)cc1)C(=O)O)c1c(Cl)cccc1Cl` [Example 49], the IC50 in assay [1] amounted to 62.1 nM; in assay [2], 1180 nM.
